Test results from paper PMC11521309, “A novel 4-aminoquinoline chemotype with multistage antimalarial activity and lack of cross-resistance with PfCRT and PfMDR1 mutants” (PLOS Pathogens, 2024).
Values joined by “and” are separate entries in the source; they are usually repeats but may differ in a detail not shown here. Equal values may be shown once.

Experiments:
[1] = tested on: pool of barcoded P. falciparum lines (Dd2 and 3D7 backgrounds); assay: Resistome growth assay, pool of 51 barcoded lines; format: cell-based, Plasmodium falciparum; settings: 3 x IC50 constant
Description: The resistome growth assay employs a parasite pool consisting of 51 barcoded lines including both Dd2 and 3D7 genetic backgrounds, with wild-type lines for both (S3 Table). Most lines used were derived from in vitro resistance selection experiments, with others having been CRISPR edited. All lines were barcoded via CRISPR editing of a 101bp barcode cassette into the non-essential pfpare locus (PF3D7_0709700). Parasites were cultured in RPMI-1640 medium supplemented with HEPES (5.94 g/L), NaHCO3 (2.1 g/L), glutamax (1×), hypoxanthine (50 mg/L), gentamycin ([…]), and AlbumaxII (5 g/L) at a […]. Parasite growth was monitored over 14 days by flow cytometry (Cytoflex, Beckman Coulter) by staining with 1× SYBR Green and 0.2 μM MitoTracker Deep Red. Parasitemia adjustments were made to maintain a healthy range of <5% parasitemia. Parasite cultures were harvested at day 14 and lysed by saponin (0.05%), with pellets washed twice with PBS. Barcodes were PCR amplified using 5 μL of parasite pellet and sequenced by Illumina amplicon sequencing.

[2] = tested on: P. falciparum 3D7 ABS parasites; assay: ABS parasite survival assay, 72 h, flow cytometry; format: cell-based; settings: Plasmodium falciparum, 3D7, ABS parasites, N = 3; read-out: IC50 3D7
Description: (§1) P. falciparum ABS parasites were cultured at 3% hematocrit in human O^+ RBCs in RPMI-1640 media supplemented with 25 mM HEPES, 50 mg/L hypoxanthine, 2 mM L-glutamine, 0.21% sodium bicarbonate, 0.5% (w/v) AlbuMAXII (Invitrogen) and 10 μg/mL gentamycin. Culture flasks were kept in modular incubator chambers (Billups-Rothenberg) in a 5% O2, 5% CO2, and 90% N2 atmosphere at 37°C. Synchronized ring-stage parasites were obtained by two consecutive rounds of treatment with 5% D-sorbitol in 48-hour intervals. […] This was done by exposing cultures at 1% hematocrit and 0.3% parasitemia in 96-well plates in the presence of drugs in a two-fold 10 or 12-point serial dilution in duplicate along with drug-free controls. After a 72-hour incubation, parasite survival was assessed by flow cytometry on an iQue flow cytometer (Sartorius) using SYBR Green and MitoTracker Deep Red FM (Life Technologies) as nuclear stain and vital dye, respectively. Parasite survival was determined as a percentage relative to drug-free control. IC50 values were interpolated from log concentration versus response curves in Prism 9 (GraphPad Prism Software Inc.).

[3] = tested on: P. falciparum Dd2 ABS parasites; assay: ABS parasite survival assay, 72 h, flow cytometry; format: cell-based; settings: Plasmodium falciparum, DD2, ABS parasites, N = 3; read-out: IC50 Dd2
Description: as §1

[4] = MTT cytotoxicity assay, 72 h; format: cell-based, monkey; settings: monkey, COS-7 cells; MTT, 72 h, N = 3
Description: (§2) Human hepatoma (HepG2) and fibroblast-like monkey kidney cells (COS-7) were cultured in Dulbecco’s Modified Eagle Medium supplemented with 10% heat-inactivated fetal bovine serum and gentamycin (40 mg/L) at 37°C in a 5% CO2 atmosphere. Cytotoxicity of test compounds was measured by metabolic reduction of mitochondrial enzymes using the MTT assay (3-[4,5-dimethyl-thiazol-2-yl]-2,5-diphenyltetrazolium chloride). Cells were seeded at 10^5 cells/well in 96-well plates and incubated for 72 hours in the presence of a 2-fold 12-point serial dilution of drugs along with drug-free controls. After adding 15 μL of MTT (5 mg/mL) to the wells, plates were centrifuged at 317g for 5 minutes and the pellet was resuspended in isopropanol. Absorbance was measured at 570 nm (CLARIOStar, Labtech BMG). Cell viability was determined by formazan production, and was expressed as a percentage of untreated control wells.

[5] = tested on: COS-7 cells; assay: MTT cytotoxicity assay, 72 h; format: cell-based, monkey
Description: as §2

[6] = MTT cytotoxicity assay, 72 h; format: cell-based, Human; settings: human, HepG2 cells; MTT, 72 h, N = 3
Description: as §2

[7] = tested on: HepG2 cells; assay: MTT cytotoxicity assay, 72 h; format: cell-based, Human
Description: as §2

[8] = tested on: P. falciparum Dd2^Dd2; set-up: key to Phenotype, Dd2^Dd2: S: sensitive; R: resistant; settings: cited from earlier work
[9] = tested on: P. falciparum Dd2^T93S; set-up: key to Phenotype, Dd2^T93S: S: sensitive; R: resistant; settings: cited from earlier work
[10] = tested on: P. falciparum Dd2^H97Y; set-up: key: S: sensitive; R: resistant; settings: ref [19],[20],[51]; cited from earlier work
[11] = tested on: P. falciparum Dd2^F145I; set-up: key to Phenotype, Dd2^F145I: S: sensitive; R: resistant; settings: cited from earlier work
[12] = tested on: P. falciparum Dd2^I218F; set-up: key to Phenotype, Dd2^I218F: S: sensitive; R: resistant; settings: cited from earlier work
[13] = tested on: P. falciparum Dd2^M343L; set-up: key to Phenotype, Dd2^M343L: S: sensitive; R: resistant; settings: cited from earlier work
[14] = tested on: P. falciparum Dd2^G353V; set-up: key to Phenotype, Dd2^G353V: S: sensitive; R: resistant; settings: cited from earlier work
[15] = tested on: P. falciparum Dd2^3D7; set-up: key: S: sensitive; R: resistant; settings: ref [19],[20],[51]; cited from earlier work
[16] = tested on: P. falciparum 7G8^7G8; set-up: key to Phenotype, 7G8^7G8: S: sensitive; R: resistant; settings: cited from earlier work
[17] = tested on: P. falciparum 7G8^F145I; set-up: key to Phenotype, 7G8^F145I: S: sensitive; R: resistant; settings: cited from earlier work
[18] = tested on: P. falciparum 7G8^C350R; set-up: key to Phenotype, 7G8^C350R: S: sensitive; R: resistant; settings: cited from earlier work
[19] = tested on: P. falciparum NF10^YF; set-up: method as in ref 1 Veiga et al. 2016; settings: means ± SEM, N 6; ref 1 Veiga et al. 2016; read-out: IC50 NF10YF; cited from earlier work
[20] = tested on: P. falciparum NF10^NF; set-up: method as in ref 1 Veiga et al. 2016; settings: means ± SEM, N 6; ref 1 Veiga et al. 2016; read-out: IC50 NF10NF; cited from earlier work
[21] = tested on: P. berghei PbGFP-Luccon liver stage; assay: In vitro inhibition of liver stage infection of Huh-7 cells, bioluminescence; format: cell-based, Plasmodium berghei; settings: 10 nM, positive control
Description: In vitro inhibition of Plasmodium liver stage infection was assessed using bioluminescence data from Huh-7 cells infected with a firefly-luciferase-expressing P. berghei line, PbGFP-Luccon, in the presence of various compound concentrations. […] One day before drug treatment and infection, 10^4 Huh-7 cells/well were seeded in 96-well plates. The medium was then replaced by an infection medium (culture medium supplemented with 50 μg/mL gentamycin and 0.8 μg/mL amphotericin B) containing desired concentrations of test compounds. Fresh sporozoites recovered from salivary glands of infected female Anopheles stephensi mosquitoes were added to seeded Huh-7 cells at a 1:1 proportion, followed by centrifugation at 1700g for 5 minutes and incubation for 46 hours at 37°C under 5% CO2. Compound toxicity against Huh-7 cells was assessed by measuring […] using the Alamar Blue assay (Invitrogen). IC50 values were calculated using nonlinear regression analysis (GraphPad Prism version 9).

[22] = tested on: PfCRT 7G8 isoform; assay: [3H]CQ uptake in PfCRT-containing proteoliposomes; format: biochemical, Plasmodium falciparum; settings: 1 μM; PfCRT 7G8, 7G8^F145I and 7G8^C350R
Description: Purified PfCRT variants were reconstituted in preformed liposomes made of E. coli total lipids:cholesteryl hemisuccinate 97:3 (w/w) at a protein-to-lipid ratio of 1:150 (w/w). The lumen of the proteoliposomes was composed of 100 mM KPi, pH 7.5, and 2 mM β-mercaptoethanol. Uptake of [^3H]CQ (1 Ci/mmol) or [^3H]PPQ (1 Ci/mmol) was performed by diluting PfCRT-containing proteoliposomes (30 ng of PfCRTper reaction) in an uptake buffer containing 100 mM Tris/MES, pH 5.5, in the presence or absence of 1 μM of the test compounds. In addition, 1 μM valinomycin was added to the reaction to generate a K^+ diffusion potential-driven membrane potential (ΔΨ). […] Filters were dried and incubated in a scintillation cocktail, and the radioactivity captured on the filters was counted in a Hidex SL300 scintillation counter. The efficiency of detection was calculated with a standard curve of known concentrations of each radiolabeled compound, and this was used to transform decays per minute (dpm) into pmol. The nonspecific interaction of each compound with nitrocellulose filters was determined by measuring mock uptake in the absence of liposomes or proteoliposomes. These values (determined for each experiment) were used to calculate background uptake in liposomes or proteoliposomes. […]

[23] = tested on: P. falciparum NF54-Pfs16-GFP-Luc stage IV-V gametocytes; assay: Mature gametocyte (stages IV-V) viability, luciferase, 48 h; format: cell-based, Plasmodium falciparum; settings: 5 μM
Description: P. falciparum NF54-Pfs16-GFP-Luc (MRA-1217), a highly gametocyte-producing strain, was cultured following standard procedures. NF54-Luc ABS parasites were sorbitol-synchronized as previously described and cultured to reach 8–10% parasitemia as mature trophozoites prior to starting gametogenesis induction via nutrient deficit stress. Briefly, stress was induced by replacing only 40% of the culture medium and returning cultures to a 37°C incubation. Cultures were treated with 50 mM N-acetylglucosamine for 10 days to remove ABS parasites. Mature gametocytes (stages IV-V) were isolated using magnetic columns and incubated at 2% gametocytemia and 1.5% hematocrit in 96-well plates containing the test compounds for 48 hours at 37°C, following standard P. falciparum culturing conditions. Methylene blue was used as a gametocytocidal control alongside drug-free wells. Luciferase activity was assessed by adding 40 μL of luciferin substrate (Promega) to 40 μL of parasite lysates and detecting bioluminescence at an integration constant of 10s with the BioTek Cytation 5 Cell Imaging Multimode Reader.

[24] = Dd2Dd2, mean ± SEM, ref 1 (Ross et al., 2018)
[25] = Dd2T93S, mean ± SEM, ref 2 (Dhingra et al., 2019)
[26] = Dd2F145I, mean ± SEM, ref 1 (Ross et al., 2018)
[27] = Dd2I218F, mean ± SEM, ref 2 (Dhingra et al., 2019)
[28] = Dd2M343L, mean ± SEM, ref 1 (Ross et al., 2018)
[29] = Dd2G353V, mean ± SEM, ref 1 (Ross et al., 2018)

CNC(=O)c1ccc(-c2cnc3cnc(C(=O)N(C)c4ccc(Cl)cc4)cn23)cc1 [KDU691]
recrudescence of barcoded pool after [1]: 9 days and 7 days

COc1ccc(Nc2ccnc3ccccc23)cc1 [LDT-627]
IC50 [2]: 2.5 ± 0.8 µM | IC50 [3]: 2 ± 0.2 µM | CC50 at 72 h [4]: 54.5 ± 16.7 µM | SI (CC50 COS-7 / IC50 3D7) [5]: 22.1 | CC50 at 72 h [6]: 12.7 ± 6.4 µM | SI (CC50 HepG2 / IC50 3D7) [7]: 5.2

Clc1ccc2c(N3CCN(CCCN4CCN(c5ccnc6cc(Cl)ccc56)CC4)CC3)ccnc2c1 [PPQ, piperaquine]
IC50 [8, 24]: 0.0276 ± 0.0031 µM | IC90 [8, 24]: 0.0502 ± 0.0042 µM | Phenotype, Dd2^Dd2 ([8]; ref [19],[20],[51]): S | IC50 [9, 25]: 0.0319 ± 0.0056 µM | IC90 [9, 25]: 6.88 ± 3.42 µM | Phenotype, Dd2^T93S ([9]; ref [19],[20],[51]): R | Phenotype, Dd2^H97Y [10]: R | IC50 [11, 26]: 0.0653 ± 0.0031 µM | IC90 [11, 26]: 5.77 ± 0.666 µM | Phenotype, Dd2^F145I ([11]; a: sensitized to CQ compared to the parental line but not fully sensitive, ref [19],[20],[51]): R | IC50 [12, 27]: 0.042 ± 0.0208 µM | IC90 [12, 27]: 8.6 ± 1.66 µM | Phenotype, Dd2^I218F ([12]; ref [19],[20],[51]): R | IC50 [13, 28]: 0.0376 ± 0.0048 µM | IC90 [13, 28]: 0.0931 ± 0.0097 µM | Phenotype, Dd2^M343L ([13]; ref [19],[20],[51]): R | IC50 [14, 29]: 0.0318 ± 0.0074 µM | IC90 [14, 29]: 3.74 ± 1.98 µM | Phenotype, Dd2^G353V ([14]; ref [19],[20],[51]): R | Phenotype, Dd2^3D7 [15]: S | IC50 ([16]; 7G87G8, mean ± SEM, ref 3 (Kim et al., 2019)): 0.0214 ± 0.001 µM | Phenotype, 7G8^7G8 ([16]; ref [19],[20],[51]): S | IC50 ([17]; 7G8F145I, mean ± SEM, ref 3 (Kim et al., 2019)): 0.0287 ± 0.001 µM | Phenotype, 7G8^F145I ([17]; ref [19],[20],[51]): R | IC50 ([18]; 7G8C350R, mean ± SEM, ref 3 (Kim et al., 2019)): 0.0365 ± 0.002 µM | Phenotype, 7G8^C350R ([18]; ref [19],[20],[51]): R | IC50 [19]: 0.0418 ± 0.0034 µM | IC50 [20]: 0.0354 ± 0.0021 µM

O=C1C(O)=C([C@H]2CC[C@H](c3ccc(Cl)cc3)CC2)C(=O)c2ccccc21 [atovaquone]
effect on hepatic infection [21]: almost completely ablated infection | competitive inhibition of [3H]CQ or [3H]PPQ transport [22]: No competitive inhibition

CN(C)c1ccc2nc3ccc(=[N+](C)C)cc-3sc2c1 [methylene blue]
% Inhibition of viability, mature gametocytes ([23]; mean, N = 3): 100% | % Inhibition of viability, mature gametocytes ([23]; mean, N = 3, listed as MB): 100.00% | % Inhibition of viability, mature gametocytes ([23]; single replicates): 100.00%

CCc1nc(N)nc(N)c1-c1ccc(Cl)cc1 [pyrimethamine]
competitive inhibition of [3H]CQ or [3H]PPQ transport [22]: No competitive inhibition
